Data: the NIST ThermoML archive (doi:10.1016/j.fluid.2013.06.007)
Numbers after ± are expanded uncertainties.

Assays:
[1] = 298.2 K; 101.33 kPa; Liquid; Vibrating tube method
[2] = refractive index (Na D-line) (dimensionless); settings: 298.2 K; 101.33 kPa; Liquid; Standard Abbe refractometry

## CCCCCCO [hexan-1-ol]
[1]
  mass density: 815.167 ± 0.83 kg/m3
[2]
  refractive index: 1.416 ± 0.0005

## CCCCCO [pentan-1-ol]
[1]
  mass density: 811.288 ± 0.63 kg/m3
[2]
  refractive index: 1.4078 ± 0.0004

## CCCCCCCO [heptan-1-ol]
[1]
  mass density: 818.915 ± 0.63 kg/m3
[2]
  refractive index: 1.4224 ± 0.0004

## CC(O)C(=O)O (stereo not drawn) [2-hydroxypropanoic acid]
[1]
  mass density: 1199.91 ± 87 kg/m3
[2]
  refractive index: 1.4243 ± 0.003

## CCCCO [butan-1-ol]
[1]
  mass density: 805.877 ± 0.63 kg/m3
[2]
  refractive index: 1.3972 ± 0.0004

## O [water]
[2]
  refractive index: 1.3325 ± 0.0004

## CCC(C)O (stereo not drawn) [butan-2-ol]
[1]
  mass density: 802.362 ± 0.63 kg/m3
[2]
  refractive index: 1.394 ± 0.0004
